# Laboratory results taken from patent US20090259275A1, “METHODS OF TREATING BRAIN DAMAGES” (priority 2008, published 2009).
# “Also recorded” adds a separate entry of the source.
# Legend:
# [1] = system: NSPC migration toward cathode; assay: EF-directed NSPC migration in LGE explant cultures; assay type: cell-based, rat; settings: DAPV 10 μM, EF 30 mV/mm for 10 hours
# Procedure: Explants (100-300 μm in diameter) were selected for observation. For the electric field (EF) application, agar-salt bridges were used to connect silver/silver chloride electrodes in beakers containing Steinberg's solution to pools of excess culture medium at either side of the chamber. The electric field strengths were measured directly at the beginning and end of the observation period. For time-lapse observation, HEPES acid (25 mM) was added to the culture medium to adjust pH to 7.4. Time-lapse imaging was performed with an inverted microscope (Zeiss Axiovert 200M, obtained from Zeiss, Oberkochen, Germany) that was used to record digitally the migration of NSPCs for 3 hours. […] At the end of exposure period explants were fixed in 4% paraformaldehyde and then digitally photographed for quantification. […] To quantify velocity and directedness of cell motion, the cell centroid was calculated with Image J software (obtained from NIH). […] The directedness of motion was expressed as a function of cosine. It was calculated by defining movements in the X-plane towards the cathode (or mock-cathode) as negative. […] For quantification of long-term EF-exposed cells, the symmetry was expressed as a function of the distribution of cells around the explant. Total cell numbers in the cathode and anode facing quadrants were calculated. […]
# [2] = target: T1, NMDAR association with TIAM1 (Rattus norvegicus, UniProt Q00960); assay: Coimmunoprecipitation of NMDAR (NR2B) with TIAM1 in EF-exposed LGE explants; assay type: cell-based; settings: DAPV 10 μM, EF 250 mV/mm for 60 minutes
# T1 construct: from tissue; host or cells: rat (Wistar) E17-18 lateral ganglionic eminence explant cultures
# Excerpt: The methods for immunocytochemistry and coimmunoprecipitation have been described in detail in Ning et al., “Dual neuroprotective signaling mediated by downregulating two distinct phosphatase activities of PTEN,” J. Neurosci., 24, 4052-60, (2004); and Liu et al., “Ischemic insults direct glutamate receptor subunit 2-lacking AMPA receptors to synaptic sites,” J. Neurosci., 26, 5309-19 (2006), both of which are incorporated herein by reference. For immunocytochemical labeling, the guinea-pig anti-DCX (obtained from Santa Cruz Biotechnology, Santa Cruz, Calif.), mouse anti-nestin (obtained from Chemicon, Billerica, Mass.), rabbit anti-NR1 (obtained from Chemicon), and rabbit anti-NR2B (obtained from Novas Biologicals, Littleton, Colo.) primary antibodies were used. Secondary antibodies consisted of Alex Fluor 488 and 596 were purchased from Molecular Probes, Eugene, Oreg. Imaging was performed with a Zeiss LSM 510 META confocal microscope and image processing was performed with Image J software (obtained from NIH). For coimmunoprecipitation assay, rabbit anti-TIAM1 (obtained from Santa Cruz), rabbit anti-NR2B (obtained from Novus Biologicals), rabbit anti-phosphorylated PAK1 at serine 423 (obtained from Santa Cruz) and mouse anti-actin (obtained from Chemicon) were used.
# Rearrangement of the actin cytoskeletal network is an essential process in neural migration. […]
# [3] = system: association of p-PAK1 with TIAM1; assay: Coimmunoprecipitation of p-PAK1 with TIAM1 in EF-exposed LGE explants; assay type: cell-based, rat; settings: DAPV
# Excerpt: (§1) The methods for immunocytochemistry and coimmunoprecipitation have been described in detail in Ning et al., “Dual neuroprotective signaling mediated by downregulating two distinct phosphatase activities of PTEN,” J. Neurosci., 24, 4052-60, (2004); and Liu et al., “Ischemic insults direct glutamate receptor subunit 2-lacking AMPA receptors to synaptic sites,” J. Neurosci., 26, 5309-19 (2006), both of which are incorporated herein by reference. For immunocytochemical labeling, the guinea-pig anti-DCX (obtained from Santa Cruz Biotechnology, Santa Cruz, Calif.), mouse anti-nestin (obtained from Chemicon, Billerica, Mass.), rabbit anti-NR1 (obtained from Chemicon), and rabbit anti-NR2B (obtained from Novas Biologicals, Littleton, Colo.) primary antibodies were used. Secondary antibodies consisted of Alex Fluor 488 and 596 were purchased from Molecular Probes, Eugene, Oreg. Imaging was performed with a Zeiss LSM 510 META confocal microscope and image processing was performed with Image J software (obtained from NIH). For coimmunoprecipitation assay, rabbit anti-TIAM1 (obtained from Santa Cruz), rabbit anti-NR2B (obtained from Novus Biologicals), rabbit anti-phosphorylated PAK1 at serine 423 (obtained from Santa Cruz) and mouse anti-actin (obtained from Chemicon) were used. […]
# [4] = system: association between actin and TIAM1; assay: Coimmunoprecipitation of actin with TIAM1 in EF-exposed explants; assay type: cell-based, rat; settings: DAPV
# Excerpt: as §1
# PAK1 phosphorylation = assay: Immunoblot of PAK1 phosphorylation (serine 423) in EF-exposed explants; assay type: cell-based, rat; settings: DAPV; EF 250 mV/mm for 60 min
# Excerpt: as §1
# T1 sequence (Q00960 27-1482, other chains not shown): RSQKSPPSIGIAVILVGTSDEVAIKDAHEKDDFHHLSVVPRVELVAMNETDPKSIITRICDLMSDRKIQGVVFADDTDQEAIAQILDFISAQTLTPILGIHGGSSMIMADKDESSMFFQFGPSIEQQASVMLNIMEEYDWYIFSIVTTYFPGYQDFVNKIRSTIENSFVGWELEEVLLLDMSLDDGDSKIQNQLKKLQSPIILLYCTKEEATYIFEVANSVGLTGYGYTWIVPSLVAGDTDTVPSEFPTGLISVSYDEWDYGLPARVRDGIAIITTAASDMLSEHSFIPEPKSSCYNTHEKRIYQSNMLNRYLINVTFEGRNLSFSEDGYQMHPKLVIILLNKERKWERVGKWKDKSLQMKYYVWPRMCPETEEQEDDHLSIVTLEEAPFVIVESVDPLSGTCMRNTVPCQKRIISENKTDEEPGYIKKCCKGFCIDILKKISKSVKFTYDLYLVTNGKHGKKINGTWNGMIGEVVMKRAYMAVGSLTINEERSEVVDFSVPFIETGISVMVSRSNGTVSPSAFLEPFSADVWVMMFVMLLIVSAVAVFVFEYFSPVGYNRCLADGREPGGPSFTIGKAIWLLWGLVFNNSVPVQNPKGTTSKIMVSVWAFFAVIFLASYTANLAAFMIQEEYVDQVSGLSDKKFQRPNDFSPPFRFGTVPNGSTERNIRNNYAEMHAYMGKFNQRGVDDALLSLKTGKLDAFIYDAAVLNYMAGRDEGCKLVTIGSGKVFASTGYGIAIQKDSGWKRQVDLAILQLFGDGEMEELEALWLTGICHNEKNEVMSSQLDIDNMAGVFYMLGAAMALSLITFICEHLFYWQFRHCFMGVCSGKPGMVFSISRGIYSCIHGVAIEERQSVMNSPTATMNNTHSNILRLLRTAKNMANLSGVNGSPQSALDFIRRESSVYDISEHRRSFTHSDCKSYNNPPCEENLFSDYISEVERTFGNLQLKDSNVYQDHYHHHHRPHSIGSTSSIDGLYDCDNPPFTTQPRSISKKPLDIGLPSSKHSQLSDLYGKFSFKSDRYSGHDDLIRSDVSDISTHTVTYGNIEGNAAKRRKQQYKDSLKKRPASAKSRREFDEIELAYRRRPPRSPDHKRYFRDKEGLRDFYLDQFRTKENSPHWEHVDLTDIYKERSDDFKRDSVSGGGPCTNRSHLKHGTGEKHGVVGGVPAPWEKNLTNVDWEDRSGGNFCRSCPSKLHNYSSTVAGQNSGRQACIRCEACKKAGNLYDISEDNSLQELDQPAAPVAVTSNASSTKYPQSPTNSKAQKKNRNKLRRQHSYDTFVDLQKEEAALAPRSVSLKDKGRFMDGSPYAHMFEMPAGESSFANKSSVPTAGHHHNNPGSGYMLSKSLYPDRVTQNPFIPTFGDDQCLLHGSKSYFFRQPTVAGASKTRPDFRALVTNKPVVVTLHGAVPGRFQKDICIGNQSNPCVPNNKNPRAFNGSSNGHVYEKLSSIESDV
compound,measurement,setting,value
N[C@H](CCCP(=O)(O)O)C(=O)O [DAPV],NSPC migration toward cathode on the cathode side of explants,[1],significantly inhibited; also recorded: significantly attenuated
same,EF-induced increase of NMDAR (NR2B) association with TIAM1,[2],inhibited; also recorded: suppressed
same,EF-enhanced association of p-PAK1 with TIAM1,[3],abolished
same,EF-induced increase of association between actin and TIAM1,[4],suppressed; also recorded: inhibited
same,EF-mediated increase of PAK1 phosphorylation,PAK1 phosphorylation,significantly attenuated; also recorded: blocked
